Assay results from ChEMBL document CHEMBL1201862, “PubChem BioAssay data set” (2004).
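Where inhibition never reached the appropriate level, the endpoint shown equals the highest concentration tested. Otherwise, values were interpolated linearly from a five-concentration, 48-hour dose response in 96-well plates. GI50 is the concentration that inhibits growth by half.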 Active and inactive are the calls of the source. Rule as the data show it: active = GI50 up to about 1.1 µM and inactive = higher.

Experiments:
Experiment in all cases: DTP human tumour cell line panel, 48 h
SW-620 = system: SW-620
CCRF-CEM = system: CCRF-CEM
MDA-MB-231 = system: MDA-MB-231
UACC-62 = system: UACC-62
NCI-H23 = system: NCI-H23
NCI-H226 = system: NCI-H226
TK-10 = system: TK-10
MDA-MB-435 = system: MDA-MB-435
HT-29 = system: HT-29
SK-MEL-5 = system: SK-MEL-5
OVCAR-4 = system: OVCAR-4
OVCAR-3 = system: OVCAR-3
DU-145 = system: DU-145
UACC-257 = system: UACC-257
SF-295 = system: SF-295
OVCAR-8 = system: OVCAR-8
Hs-578T = system: Hs-578T
KM12 = system: KM12
786-0 = system: 786-0
MDA-N = system: MDA-N

Measured: GI50

COc1ccccc1CC1(O)OC(=O)c2ccccc21 (stereo not given)
inactive: SW-620 > 100 µM | CCRF-CEM > 100 µM | MDA-MB-231 > 100 µM | UACC-62 > 100 µM | NCI-H23 > 100 µM | NCI-H226 > 100 µM | TK-10 > 100 µM | MDA-MB-435 > 100 µM | HT-29 > 100 µM | SK-MEL-5 > 100 µM | OVCAR-4 > 100 µM | OVCAR-3 > 100 µM | DU-145 > 100 µM | UACC-257 > 100 µM | SF-295 > 100 µM | OVCAR-8 > 100 µM | Hs-578T > 100 µM | KM12 > 100 µM | 786-0 > 100 µM | MDA-N > 100 µM

CCOC(=O)CC1C(O)C(=O)N(C)C1c1ccccc1 (stereo not given)
inactive: SW-620 > 100 µM | CCRF-CEM > 100 µM | MDA-MB-231 > 100 µM | UACC-62 > 100 µM | NCI-H23 > 100 µM | NCI-H226 > 100 µM | TK-10 > 100 µM | MDA-MB-435 > 100 µM | HT-29 > 100 µM | SK-MEL-5 > 100 µM | OVCAR-4 > 100 µM | OVCAR-3 > 100 µM | DU-145 > 100 µM | UACC-257 > 100 µM | SF-295 > 100 µM | OVCAR-8 > 100 µM | Hs-578T > 100 µM | KM12 > 100 µM | 786-0 > 100 µM | MDA-N > 100 µM

C=CCCCCNC(=O)C[C@@H]1C2=C(CC[C@H]1O[Si](C)(C)C(C)(C)C)N1C(=O)CCC/C=C\C1C2 (stereo not given in full)
inactive: SW-620 13.6 µM | CCRF-CEM 10.6 µM | MDA-MB-231 13.3 µM | UACC-62 12.9 µM | NCI-H23 13.7 µM | NCI-H226 15.5 µM | TK-10 16.1 µM | MDA-MB-435 14.6 µM | HT-29 12.3 µM | SK-MEL-5 14.1 µM | OVCAR-4 12.2 µM | OVCAR-3 14 µM | DU-145 15 µM | UACC-257 13.1 µM | SF-295 14.9 µM | OVCAR-8 14.9 µM | Hs-578T 16.1 µM | KM12 15 µM | 786-0 15.4 µM | MDA-N 16.3 µM

CC(C)=CCNc1nc(Cl)nc2[nH]cnc12
inactive: SW-620 > 100 µM | CCRF-CEM 76.6 µM | MDA-MB-231 21.5 µM | UACC-62 > 100 µM | NCI-H23 56.6 µM | NCI-H226 > 100 µM | TK-10 71.6 µM | MDA-MB-435 > 100 µM | HT-29 > 100 µM | SK-MEL-5 29.3 µM | OVCAR-4 54.1 µM | OVCAR-3 > 100 µM | DU-145 > 100 µM | UACC-257 27.1 µM | SF-295 42.6 µM | OVCAR-8 46.5 µM | Hs-578T 62.8 µM | KM12 > 100 µM | 786-0 49.4 µM | MDA-N > 100 µM

OCC(S)CS.[Bi] (stereo not given)
inactive: SW-620 16 µM | CCRF-CEM 1.25 µM | MDA-MB-231 24.4 µM | UACC-62 17.9 µM | NCI-H23 17.1 µM | NCI-H226 51.8 µM | TK-10 17.8 µM | MDA-MB-435 15.2 µM | HT-29 19 µM | SK-MEL-5 31.4 µM | OVCAR-4 23.6 µM | OVCAR-3 10.8 µM | DU-145 18.3 µM | UACC-257 13 µM | SF-295 48.2 µM | OVCAR-8 19.5 µM | Hs-578T 15.9 µM | KM12 19.1 µM | 786-0 11.2 µM | MDA-N 14.1 µM

COC(=O)[C@@H]1CN(C(=O)c2ccccc2)C(=O)N1C(=O)OCc1ccccc1
inactive: SW-620 > 100 µM | CCRF-CEM > 100 µM | MDA-MB-231 > 100 µM | UACC-62 > 100 µM | NCI-H23 > 100 µM | NCI-H226 > 100 µM | TK-10 > 100 µM | MDA-MB-435 > 100 µM | HT-29 > 100 µM | SK-MEL-5 > 100 µM | OVCAR-4 > 100 µM | OVCAR-3 > 100 µM | DU-145 > 100 µM | UACC-257 > 100 µM | SF-295 > 100 µM | OVCAR-8 > 100 µM | Hs-578T > 100 µM | KM12 > 100 µM | 786-0 > 100 µM | MDA-N > 100 µM

c1ccc(CN2CCC(=NN3CCCCC3)CC2)cc1
inactive: SW-620 > 100 µM | CCRF-CEM 31.8 µM | MDA-MB-231 43.3 µM | UACC-62 > 100 µM | NCI-H23 78.2 µM | NCI-H226 > 100 µM | TK-10 86.7 µM | MDA-MB-435 72.8 µM | HT-29 32.4 µM | SK-MEL-5 30.3 µM | OVCAR-4 > 100 µM | OVCAR-3 44.2 µM | DU-145 > 100 µM | UACC-257 47.1 µM | SF-295 > 100 µM | OVCAR-8 65.2 µM | Hs-578T 35 µM | KM12 78.3 µM | 786-0 > 100 µM | MDA-N 83 µM
